Assay results as given in the NIST ThermoML archive (doi:10.1021/je1012586).

What was measured:
[1] = refractive index (Na D-line) (dimensionless); wn = mass fraction of the nth substance listed; conditions: 101 kPa, Liquid
[2] = wn = mass fraction of the nth substance listed; conditions: for surface tension liquid-gas: Pendant drop shape; for viscosity / mass density: 101 kPa, Liquid; for viscosity: Capillary tube (Ostwald / Ubbelohde) method

C1CNCCN1 [piperazine] + O
Conditions	mass density, [2] [kg/m3]	refractive index, [1]	surface tension liquid-gas, [2] [mN/m]	viscosity, [2] [mPa·s]
298.15 K, w1 = 0.0174	997.75	1.33796	70.97	0.87
298.15 K, w1 = 0.0345	998.52	1.34183	69.95	0.94
298.15 K, w1 = 0.0688	1000.18	1.34759	69.83	1.08
298.15 K, w1 = 0.1035	1002.23	1.35307	69.41	1.29
303.15 K, w1 = 0.0174	996.37	1.33706	70.09	0.78
303.15 K, w1 = 0.0345	997.08	1.34024	69.18	0.85
303.15 K, w1 = 0.0688	998.69	1.34608	68.99	0.96
303.15 K, w1 = 0.1035	1000.64	1.35203	68.37	1.18
308.15 K, w1 = 0.0174	994.74	–	–	0.71
308.15 K, w1 = 0.0345	995.43	–	–	0.75
308.15 K, w1 = 0.0688	996.97	–	–	0.86
308.15 K, w1 = 0.1035	998.84	–	–	1.04
313.15 K, w1 = 0.0174	992.91	1.33604	69.11	0.68
313.15 K, w1 = 0.0345	993.59	1.33892	68.21	0.69
313.15 K, w1 = 0.0688	995.07	1.34482	68.11	0.78
313.15 K, w1 = 0.1035	996.86	1.35071	67.44	0.9
318.15 K, w1 = 0.0174	990.9	–	–	0.59
318.15 K, w1 = 0.0345	991.56	–	–	0.63
318.15 K, w1 = 0.0688	992.99	–	–	0.71
318.15 K, w1 = 0.1035	994.73	–	–	0.84
323.15 K, w1 = 0.0174	988.72	1.33476	67.93	0.54
323.15 K, w1 = 0.0345	989.35	1.33759	67.29	0.57
323.15 K, w1 = 0.0688	990.74	1.34336	67.06	0.65
323.15 K, w1 = 0.1035	992.39	1.34957	66.45	0.78
328.15 K, w1 = 0.0174	986.37	–	–	0.5
328.15 K, w1 = 0.0345	986.98	–	–	0.52
328.15 K, w1 = 0.0688	988.33	–	–	0.58
328.15 K, w1 = 0.1035	989.92	–	–	0.68
333.15 K, w1 = 0.0174	983.83	1.33348	66.99	0.46
333.15 K, w1 = 0.0345	984.46	1.33577	66.48	0.48
333.15 K, w1 = 0.0688	985.77	1.34221	66.14	0.54
333.15 K, w1 = 0.1035	987.3	1.34829	65.31	0.62
